The results in this text go back to PMC6680845, “Screening and Evaluation of Xanthine Oxidase Inhibitors from Gnetum parvifolium in China” (Molecules, 2019).

SMILES strings stand for the structures.

One assay concerns the target xanthine oxidase (XO) (Bos taurus, UniProt P80457). The assay is described as follows: XO inhibition type and kinetics (Lineweaver-Burk and secondary plots). Type of assay: biochemical. To be noted: for mode of XO inhibition: Lineweaver-Burk plots. The protocol: In order to further exploring the inhibitory activities of four inhibitors, the inhibition type and inhibition kinetics constants were assayed.
For inhibition test, 20 μL of XO solution (1 mg/mL in buffers) and 1 mL of sample with different concentrations were mixed in a quartz cuvette. Then, 1 mL of […] (1 mg/mL) was added to start reaction and the increase of absorbance at 295 nm in 100 s was recorded by an UV-Vis Spectrophotometer (UV2700, Shimadzu, Kyoto, Japan). […] All experiments were performed in triplicate. The inhibition of XO was calculated by the following formula. Inhibition% = (1 − ΔAs/ΔA0) × 100 (1) where ΔAs and ΔA0 are the changes of absorbance for sample and blank, respectively.

Assay [1] in a line: ABTS radical scavenging test. To be noted: 30 min in dark, 734 nm. How it is done: (§1) For ABTS test, ABTS solution (2 mL of ABTS stock solution (0.01 M) added to 58 mL phosphate buffers, pH 7.0) was incubated for 12 h and diluted with methanol for use. Then, 0.5 mL of samples with different concentrations were mixed thoroughly with 2 mL of ABTS solution. The mixture was kept in dark for 30 min, and the absorbance at 734 nm was measured by an UV-Vis Spectrophotometer. The same amount of water was used as control instead of sample. All experiments were performed in triplicate. The scavenging activity of DPPH and ABTS· radicals was calculated by the following formula: Radical scavenging rate% = 1 − As/A0 × 100 (2) where A0 was the absorbance of control and As was the absorbance of sample.

Assay [2] is described as follows: DPPH free radical scavenging test. To be noted: DPPH 0.1 mM in methanol, 30 min in dark, 517 nm. How it is done: The DPPH and ABTS· radical scavenging tests were measured according to the reported method with some modifications. For DPPH test, 0.5 mL of sample with different concentrations were mixed thoroughly with 2 mL of DPPH solution (0.1 mM in methanol). The mixture was then kept in dark for 30 min. Finally, the absorbance of solution was measured by an UV-Vis Spectrophotometer (UV2700, Shimadzu, Kyoto, Japan) at 517 nm.
as §1
(In general: DPPH is a stable violet radical that fades when it is reduced.)

Sequence of xanthine oxidase (XO) (P80457 2-1332): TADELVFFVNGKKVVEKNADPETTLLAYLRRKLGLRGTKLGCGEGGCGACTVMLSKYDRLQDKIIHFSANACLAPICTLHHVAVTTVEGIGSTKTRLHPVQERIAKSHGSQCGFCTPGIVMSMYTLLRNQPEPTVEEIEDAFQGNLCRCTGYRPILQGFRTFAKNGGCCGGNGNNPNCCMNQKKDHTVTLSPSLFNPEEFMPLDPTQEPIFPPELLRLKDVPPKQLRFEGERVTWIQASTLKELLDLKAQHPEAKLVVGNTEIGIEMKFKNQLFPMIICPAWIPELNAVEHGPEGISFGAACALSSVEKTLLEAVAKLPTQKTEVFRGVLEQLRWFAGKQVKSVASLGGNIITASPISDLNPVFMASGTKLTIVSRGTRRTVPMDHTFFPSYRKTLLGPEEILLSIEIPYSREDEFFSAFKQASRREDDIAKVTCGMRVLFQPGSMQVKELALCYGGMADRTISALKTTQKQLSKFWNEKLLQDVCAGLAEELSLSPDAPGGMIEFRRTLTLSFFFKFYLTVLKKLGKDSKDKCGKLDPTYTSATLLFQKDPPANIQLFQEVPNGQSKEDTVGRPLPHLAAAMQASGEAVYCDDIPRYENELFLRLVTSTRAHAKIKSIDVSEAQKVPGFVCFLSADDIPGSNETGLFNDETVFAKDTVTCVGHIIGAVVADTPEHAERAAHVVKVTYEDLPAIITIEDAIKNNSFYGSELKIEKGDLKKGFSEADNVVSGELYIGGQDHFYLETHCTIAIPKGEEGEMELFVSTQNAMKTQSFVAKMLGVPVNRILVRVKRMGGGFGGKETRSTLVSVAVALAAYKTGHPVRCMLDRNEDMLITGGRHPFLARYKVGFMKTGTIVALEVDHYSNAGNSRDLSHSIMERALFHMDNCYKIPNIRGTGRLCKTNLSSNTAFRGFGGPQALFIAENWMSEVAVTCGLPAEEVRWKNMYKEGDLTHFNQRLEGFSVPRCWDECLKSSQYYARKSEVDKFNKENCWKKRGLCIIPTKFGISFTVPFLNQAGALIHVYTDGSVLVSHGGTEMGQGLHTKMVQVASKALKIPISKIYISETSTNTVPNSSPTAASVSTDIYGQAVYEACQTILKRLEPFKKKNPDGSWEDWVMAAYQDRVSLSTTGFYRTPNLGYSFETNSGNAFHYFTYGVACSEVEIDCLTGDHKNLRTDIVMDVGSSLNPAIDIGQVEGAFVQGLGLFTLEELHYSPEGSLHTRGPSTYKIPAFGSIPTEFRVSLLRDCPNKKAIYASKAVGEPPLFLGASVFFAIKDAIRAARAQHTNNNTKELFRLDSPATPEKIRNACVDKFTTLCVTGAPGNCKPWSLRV

Turning to `COc1cc(/C=C/c2cc(O)cc(O)c2)ccc1O` [Isorhapontigenin], the “mode of XO inhibition” value on xanthine oxidase (XO) is given as “uncompetitive type”. Further, the Vmax (in general, the top rate of the reaction or transport when substrate is in excess) on xanthine oxidase (XO) (inhibitor [C] 2.6 μM) is 0.168 mmol/min; on xanthine oxidase (XO) (inhibitor [C] 3.9 μM), 0.134 mmol/min; at xanthine oxidase (XO) (inhibitor [C] 5.3 μM), 0.061 mmol/min. The EC50 (usually the concentration giving half of the maximal effect) was found to be 300 µM in assay [1] and 1450 µM in assay [2].

As to `Oc1cc(O)cc(/C=C/c2ccc(O)c(O)c2)c1` [Piceatannol], at xanthine oxidase (XO), the “mode of XO inhibition” value is recorded as “competitive type”. The Vmax amounted to 0.160 mmol/min at xanthine oxidase (XO) (inhibitor [C] 3.3 μM), 0.164 mmol/min on xanthine oxidase (XO) (inhibitor [C] 4.9 μM) and 0.157 mmol/min at xanthine oxidase (XO) (inhibitor [C] 6.6 μM). In addition, a half-maximal effect in assay [2] (EC50) was put at 40 µM.

Consider `Oc1ccc(/C=C/c2cc(O)cc(O)c2)cc1` [Resveratrol], for which the “mode of XO inhibition” value at xanthine oxidase (XO) was “uncompetitive type”. In addition, the values for the Vmax at xanthine oxidase (XO) (inhibitor [C] 3.3 μM), on xanthine oxidase (XO) (inhibitor [C] 4.9 μM) and on xanthine oxidase (XO) (inhibitor [C] 6.6 μM) were 0.173 mmol/min, 0.106 mmol/min and 0.088 mmol/min, respectively.
